Measurements reported in patent US10670605B2, “Cysteine reactive probes and uses thereof” (The Scripps Research Institute, priority 2015, dated 2020).
Structures can show the parent of a compound that is named as a salt.

How the values were obtained:
Assay in all cases: isoTOP-ABPP of compound-treated primary human T cells
Type in all cases: cell-based
[1] = target: Cys residues in primary human T cells (Homo sapiens, UniProt Q8IYQ7); conditions: THNSL1 C324 (Q8IYQ7)
[2] = target: Cys residues in primary human T cells (Homo sapiens, UniProt P31153)
Chain of Cys residues in primary human T cells (Homo sapiens, UniProt P31153) (P31153 whole entry): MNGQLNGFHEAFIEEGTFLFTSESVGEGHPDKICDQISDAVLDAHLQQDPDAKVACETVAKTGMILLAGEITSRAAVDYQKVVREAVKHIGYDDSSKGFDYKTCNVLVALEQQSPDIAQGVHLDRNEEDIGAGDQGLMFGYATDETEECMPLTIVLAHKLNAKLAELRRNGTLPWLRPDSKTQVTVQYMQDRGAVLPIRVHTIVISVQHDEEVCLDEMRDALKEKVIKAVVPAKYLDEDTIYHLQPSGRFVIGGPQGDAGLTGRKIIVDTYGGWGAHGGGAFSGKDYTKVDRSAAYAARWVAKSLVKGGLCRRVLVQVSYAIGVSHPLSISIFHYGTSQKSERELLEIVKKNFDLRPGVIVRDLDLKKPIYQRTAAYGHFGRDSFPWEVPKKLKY

[3] = target: Cys residues in primary human T cells (Homo sapiens, UniProt Q9NWZ3); conditions: IRAK4 C13 (Q9NWZ3)
Chain of Cys residues in primary human T cells (Homo sapiens, UniProt Q9NWZ3) (Q9NWZ3 whole entry): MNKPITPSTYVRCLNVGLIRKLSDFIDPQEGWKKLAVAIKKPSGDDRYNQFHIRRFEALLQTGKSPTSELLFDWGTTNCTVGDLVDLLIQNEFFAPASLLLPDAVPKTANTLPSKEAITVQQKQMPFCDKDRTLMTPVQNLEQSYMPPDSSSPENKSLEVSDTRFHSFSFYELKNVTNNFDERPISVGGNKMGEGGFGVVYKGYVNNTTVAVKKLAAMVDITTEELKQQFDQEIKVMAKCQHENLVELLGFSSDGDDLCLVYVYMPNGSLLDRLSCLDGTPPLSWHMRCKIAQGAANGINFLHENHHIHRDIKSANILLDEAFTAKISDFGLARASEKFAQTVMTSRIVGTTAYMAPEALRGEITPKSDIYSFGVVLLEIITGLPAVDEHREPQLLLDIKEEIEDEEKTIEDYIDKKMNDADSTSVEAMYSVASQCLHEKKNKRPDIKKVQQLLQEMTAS

[4] = target: T1, Cys residues in primary human T cells (Homo sapiens, UniProt Q96Q11); conditions: TRNT1 C373 (Q96Q11)
T1 sequence (Q96Q11 42-434): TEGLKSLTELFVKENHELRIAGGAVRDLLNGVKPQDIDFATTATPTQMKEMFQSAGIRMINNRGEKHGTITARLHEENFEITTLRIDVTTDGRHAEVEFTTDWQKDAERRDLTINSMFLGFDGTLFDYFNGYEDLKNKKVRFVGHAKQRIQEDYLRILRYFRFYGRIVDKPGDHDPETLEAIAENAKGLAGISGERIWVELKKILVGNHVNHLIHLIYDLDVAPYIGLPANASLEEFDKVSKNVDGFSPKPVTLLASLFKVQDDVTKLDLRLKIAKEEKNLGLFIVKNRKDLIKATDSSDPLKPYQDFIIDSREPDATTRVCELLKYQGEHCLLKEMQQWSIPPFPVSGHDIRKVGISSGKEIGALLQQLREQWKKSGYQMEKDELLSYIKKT

[5] = target: Cys residues in primary human T cells (Homo sapiens, UniProt Q8TB24); conditions: RIN3 C942 (Q8TB24)
[6] = target: T2, Cys residues in primary human T cells (Homo sapiens, UniProt A6NDG6); conditions: PGP C297 (A6NDG6)
T2 sequence (A6NDG6 1-321): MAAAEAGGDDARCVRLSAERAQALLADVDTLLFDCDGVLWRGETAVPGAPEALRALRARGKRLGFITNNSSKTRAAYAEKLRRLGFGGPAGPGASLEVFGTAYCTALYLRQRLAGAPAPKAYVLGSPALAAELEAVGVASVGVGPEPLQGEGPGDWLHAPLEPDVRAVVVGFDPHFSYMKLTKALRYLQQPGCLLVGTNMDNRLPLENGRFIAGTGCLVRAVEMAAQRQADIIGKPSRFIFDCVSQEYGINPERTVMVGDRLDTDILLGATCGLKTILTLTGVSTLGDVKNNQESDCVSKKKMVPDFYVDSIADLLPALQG

[7] = target: Cys residues in primary human T cells (Homo sapiens, UniProt P21580); conditions: TNFAIP3 C54 (P21580)
Chain of Cys residues in primary human T cells (Homo sapiens, UniProt P21580) (P21580 whole entry): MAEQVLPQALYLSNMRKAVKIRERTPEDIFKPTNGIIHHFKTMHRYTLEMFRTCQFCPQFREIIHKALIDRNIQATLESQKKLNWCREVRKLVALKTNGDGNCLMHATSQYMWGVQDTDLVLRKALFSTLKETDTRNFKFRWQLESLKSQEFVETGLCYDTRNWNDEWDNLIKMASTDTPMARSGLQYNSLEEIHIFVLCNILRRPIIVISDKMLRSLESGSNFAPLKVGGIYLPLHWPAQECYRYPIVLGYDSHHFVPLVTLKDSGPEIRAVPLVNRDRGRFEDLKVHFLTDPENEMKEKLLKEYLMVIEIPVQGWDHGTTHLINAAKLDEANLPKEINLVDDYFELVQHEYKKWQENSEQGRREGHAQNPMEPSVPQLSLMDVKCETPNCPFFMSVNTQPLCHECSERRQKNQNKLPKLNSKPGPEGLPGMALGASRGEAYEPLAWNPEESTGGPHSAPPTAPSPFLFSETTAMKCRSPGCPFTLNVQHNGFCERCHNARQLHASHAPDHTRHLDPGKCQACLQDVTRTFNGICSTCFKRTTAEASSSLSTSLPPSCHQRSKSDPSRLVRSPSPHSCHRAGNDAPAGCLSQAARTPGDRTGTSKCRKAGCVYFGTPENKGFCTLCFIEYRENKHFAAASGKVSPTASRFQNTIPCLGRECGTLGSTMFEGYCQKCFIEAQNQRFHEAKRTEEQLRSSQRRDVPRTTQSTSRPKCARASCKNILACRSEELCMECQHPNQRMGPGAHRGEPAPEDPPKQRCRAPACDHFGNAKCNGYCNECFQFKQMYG

[8] = target: Cys residues in primary human T cells (Homo sapiens, UniProt P18583); conditions: SON C92 (P18583)
Chain of Cys residues in primary human T cells (Homo sapiens, UniProt P18583) (P18583 whole entry): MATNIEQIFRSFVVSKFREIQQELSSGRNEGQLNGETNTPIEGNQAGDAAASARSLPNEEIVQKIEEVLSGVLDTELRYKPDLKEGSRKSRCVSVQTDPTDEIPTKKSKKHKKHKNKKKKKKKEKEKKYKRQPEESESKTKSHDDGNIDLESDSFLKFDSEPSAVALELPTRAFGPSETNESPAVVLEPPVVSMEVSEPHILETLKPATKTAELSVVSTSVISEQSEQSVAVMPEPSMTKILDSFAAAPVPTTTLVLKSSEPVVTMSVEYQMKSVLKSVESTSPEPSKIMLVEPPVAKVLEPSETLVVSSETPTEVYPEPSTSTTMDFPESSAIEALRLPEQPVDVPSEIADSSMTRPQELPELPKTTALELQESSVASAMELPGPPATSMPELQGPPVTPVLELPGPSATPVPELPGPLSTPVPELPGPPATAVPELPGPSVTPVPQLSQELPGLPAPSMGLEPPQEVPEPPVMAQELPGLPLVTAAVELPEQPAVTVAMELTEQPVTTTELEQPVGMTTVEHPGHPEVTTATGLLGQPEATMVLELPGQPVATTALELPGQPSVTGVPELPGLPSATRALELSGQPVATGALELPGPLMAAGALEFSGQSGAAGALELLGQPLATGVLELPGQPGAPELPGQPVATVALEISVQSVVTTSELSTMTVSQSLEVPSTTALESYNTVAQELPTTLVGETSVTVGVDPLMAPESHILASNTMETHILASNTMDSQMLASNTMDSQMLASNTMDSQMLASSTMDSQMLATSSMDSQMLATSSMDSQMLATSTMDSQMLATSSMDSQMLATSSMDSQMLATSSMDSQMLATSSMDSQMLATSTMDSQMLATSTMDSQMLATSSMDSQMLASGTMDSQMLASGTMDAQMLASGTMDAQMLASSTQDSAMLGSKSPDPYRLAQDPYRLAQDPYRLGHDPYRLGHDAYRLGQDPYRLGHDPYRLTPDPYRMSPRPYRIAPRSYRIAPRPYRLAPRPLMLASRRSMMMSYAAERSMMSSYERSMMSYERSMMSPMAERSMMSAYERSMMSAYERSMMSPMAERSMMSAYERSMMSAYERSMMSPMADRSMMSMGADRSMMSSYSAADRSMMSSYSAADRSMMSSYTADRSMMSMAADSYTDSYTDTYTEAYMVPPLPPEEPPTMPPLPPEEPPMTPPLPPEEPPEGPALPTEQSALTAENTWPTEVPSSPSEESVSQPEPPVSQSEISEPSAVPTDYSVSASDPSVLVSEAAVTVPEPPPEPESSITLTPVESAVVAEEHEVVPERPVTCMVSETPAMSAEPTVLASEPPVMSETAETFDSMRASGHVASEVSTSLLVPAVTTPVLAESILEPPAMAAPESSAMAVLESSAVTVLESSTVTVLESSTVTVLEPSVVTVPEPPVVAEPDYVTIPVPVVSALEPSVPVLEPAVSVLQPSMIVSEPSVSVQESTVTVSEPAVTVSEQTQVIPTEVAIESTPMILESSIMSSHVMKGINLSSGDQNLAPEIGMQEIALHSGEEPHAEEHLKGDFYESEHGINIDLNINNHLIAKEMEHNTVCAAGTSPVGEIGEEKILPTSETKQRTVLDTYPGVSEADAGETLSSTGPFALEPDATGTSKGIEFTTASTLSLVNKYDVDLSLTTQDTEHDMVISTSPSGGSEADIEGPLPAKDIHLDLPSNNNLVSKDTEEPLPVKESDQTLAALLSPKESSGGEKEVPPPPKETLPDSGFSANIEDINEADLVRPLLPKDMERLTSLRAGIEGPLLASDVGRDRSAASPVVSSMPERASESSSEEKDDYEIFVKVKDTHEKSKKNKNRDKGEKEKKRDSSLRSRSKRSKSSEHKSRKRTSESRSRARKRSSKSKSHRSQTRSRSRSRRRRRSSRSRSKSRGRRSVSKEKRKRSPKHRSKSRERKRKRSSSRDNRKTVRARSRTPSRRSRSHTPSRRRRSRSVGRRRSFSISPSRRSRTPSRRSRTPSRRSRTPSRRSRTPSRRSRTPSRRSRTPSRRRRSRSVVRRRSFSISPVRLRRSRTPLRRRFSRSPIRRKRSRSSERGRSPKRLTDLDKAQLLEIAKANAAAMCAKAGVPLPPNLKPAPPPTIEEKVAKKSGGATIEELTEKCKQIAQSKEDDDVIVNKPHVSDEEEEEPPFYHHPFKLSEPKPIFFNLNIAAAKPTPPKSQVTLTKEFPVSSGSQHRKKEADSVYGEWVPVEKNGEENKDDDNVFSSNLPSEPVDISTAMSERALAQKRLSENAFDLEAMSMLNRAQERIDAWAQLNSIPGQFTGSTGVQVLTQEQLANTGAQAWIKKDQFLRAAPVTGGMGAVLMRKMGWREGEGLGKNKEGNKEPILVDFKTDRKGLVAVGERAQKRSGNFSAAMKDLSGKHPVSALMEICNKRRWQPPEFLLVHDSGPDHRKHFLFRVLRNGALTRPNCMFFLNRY

[9] = target: T3, Cys residues in primary human T cells (Homo sapiens, UniProt P49588); conditions: AARS C773 (P49588)
T3 sequence (P49588 1-968): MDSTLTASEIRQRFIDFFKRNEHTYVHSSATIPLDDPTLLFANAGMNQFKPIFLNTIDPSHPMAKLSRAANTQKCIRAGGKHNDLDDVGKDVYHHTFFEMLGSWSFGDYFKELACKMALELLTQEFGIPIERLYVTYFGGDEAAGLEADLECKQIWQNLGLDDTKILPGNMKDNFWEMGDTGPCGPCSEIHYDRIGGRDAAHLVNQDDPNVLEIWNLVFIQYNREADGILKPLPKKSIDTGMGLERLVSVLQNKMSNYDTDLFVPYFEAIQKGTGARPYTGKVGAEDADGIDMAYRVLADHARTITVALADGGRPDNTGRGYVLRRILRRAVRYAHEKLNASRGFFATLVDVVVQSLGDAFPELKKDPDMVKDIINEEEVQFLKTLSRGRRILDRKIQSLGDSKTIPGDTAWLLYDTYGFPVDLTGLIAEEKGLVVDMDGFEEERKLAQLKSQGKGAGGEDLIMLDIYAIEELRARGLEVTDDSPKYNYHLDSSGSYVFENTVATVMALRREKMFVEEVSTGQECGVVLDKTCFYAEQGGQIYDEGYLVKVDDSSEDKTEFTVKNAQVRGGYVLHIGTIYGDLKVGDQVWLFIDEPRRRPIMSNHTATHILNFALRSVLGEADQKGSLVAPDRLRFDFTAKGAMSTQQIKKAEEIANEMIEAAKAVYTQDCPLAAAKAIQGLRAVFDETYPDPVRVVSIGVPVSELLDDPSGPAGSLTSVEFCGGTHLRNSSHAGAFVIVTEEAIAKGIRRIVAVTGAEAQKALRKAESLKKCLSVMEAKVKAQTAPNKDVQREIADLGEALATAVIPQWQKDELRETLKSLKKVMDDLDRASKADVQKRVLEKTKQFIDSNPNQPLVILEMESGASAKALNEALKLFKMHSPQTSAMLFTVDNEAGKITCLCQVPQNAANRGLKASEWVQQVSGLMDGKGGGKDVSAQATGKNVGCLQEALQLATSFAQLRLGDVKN

Chain of Cys residues in primary human T cells (Homo sapiens, UniProt Q8IYQ7) (Q8IYQ7 whole entry): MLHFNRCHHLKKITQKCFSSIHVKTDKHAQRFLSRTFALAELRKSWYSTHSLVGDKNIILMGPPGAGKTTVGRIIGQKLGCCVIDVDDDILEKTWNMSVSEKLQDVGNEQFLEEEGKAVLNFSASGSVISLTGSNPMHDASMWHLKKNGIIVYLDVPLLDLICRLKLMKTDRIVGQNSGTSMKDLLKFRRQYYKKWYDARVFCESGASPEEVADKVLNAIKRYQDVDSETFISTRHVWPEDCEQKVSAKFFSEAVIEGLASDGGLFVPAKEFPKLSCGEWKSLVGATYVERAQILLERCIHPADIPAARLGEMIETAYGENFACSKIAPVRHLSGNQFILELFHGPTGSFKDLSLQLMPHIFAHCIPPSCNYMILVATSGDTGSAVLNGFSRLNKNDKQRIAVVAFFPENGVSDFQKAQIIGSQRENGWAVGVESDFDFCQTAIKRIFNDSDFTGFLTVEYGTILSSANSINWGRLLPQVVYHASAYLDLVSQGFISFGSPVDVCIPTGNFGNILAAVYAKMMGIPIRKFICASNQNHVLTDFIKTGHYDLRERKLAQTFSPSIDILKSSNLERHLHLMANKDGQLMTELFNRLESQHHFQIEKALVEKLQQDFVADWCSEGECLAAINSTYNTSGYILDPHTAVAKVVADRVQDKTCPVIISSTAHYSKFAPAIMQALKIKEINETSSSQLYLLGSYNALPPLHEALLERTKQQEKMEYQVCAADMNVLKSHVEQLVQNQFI

## COC(=O)/C=C/C(=O)OC [DMF, dimethyl fumarate]
[1]; DMF 50 μM 1h
  R value (DMSO/DMF): 15.93
[1]; DMF 50 μM 2h
  R value (DMSO/DMF): 19.36
[2]; MAT2A C56 (P31153), DMF 50 μM 4h
  R value (DMSO/DMF): 4.17
[2]; MAT2A C104 (P31153), DMF 10 μM 4h
  R value (DMSO/DMF): 1.5
[2]; MAT2A C104 (P31153), DMF 50 μM 4h
  R value (DMSO/DMF): 4.11
[3]; DMF 50 μM 1h
  R value (DMSO/DMF): 8.3
[3]; DMF 50 μM 4h
  R value (DMSO/DMF): 20
[4]; DMF 50 μM 1h
  R value (DMSO/DMF): 1.97
[4]; DMF 50 μM 2h
  R value (DMSO/DMF): 2.66
[4]; DMF 50 μM 4h
  R value (DMSO/DMF): 5.83
[5]; DMF 50 μM 2h
  R value (DMSO/DMF): 3
[5]; DMF 50 μM 4h
  R value (DMSO/DMF): 5.7
[6]; DMF 50 μM 1h
  R value (DMSO/DMF): 3.06
[6]; DMF 50 μM 2h
  R value (DMSO/DMF): 4.21
[6]; DMF 50 μM 4h
  R value (DMSO/DMF): 10.77
[7]; DMF 10 μM 4h
  R value (DMSO/DMF): 1.58
[7]; DMF 50 μM 2h
  R value (DMSO/DMF): 5.34
[8]; DMF 50 μM 1h
  R value (DMSO/DMF): 2.5
[8]; DMF 50 μM 2h
  R value (DMSO/DMF): 6.31
[8]; DMF 50 μM 4h
  R value (DMSO/DMF): 4.17
[9]; DMF 10 μM 4h
  R value (DMSO/DMF): 2.84
[9]; DMF 50 μM 1h
  R value (DMSO/DMF): 9.34
[9]; DMF 50 μM 2h
  R value (DMSO/DMF): 10.16
[9]; DMF 50 μM 4h
  R value (DMSO/DMF): 12.75
